Laboratory results as given in patent US12441726B2, “Compounds and uses thereof” (Foghorn Therapeutics Inc., priority 2020, dated 2025).

What was measured:
BRG-1 = BRG-1 (Homo sapiens, UniProt P51532); test: ATPase catalytic activity assay (ADP-Glo), BRG-1; settings: for Emax: 1 h, read-out: BRG1 Max % Inhibition, ADP-Glo, 30 nM BRG-1, 400 μM ATP
BRM = BRM (Homo sapiens, UniProt P51531); test: ATPase catalytic activity assay (ADP-Glo), BRM; settings: 30 nM BRM, 400 μM ATP; for IC50: BRM ATPase: IC50 (uM)
Sequence of BRM (P51531 whole entry): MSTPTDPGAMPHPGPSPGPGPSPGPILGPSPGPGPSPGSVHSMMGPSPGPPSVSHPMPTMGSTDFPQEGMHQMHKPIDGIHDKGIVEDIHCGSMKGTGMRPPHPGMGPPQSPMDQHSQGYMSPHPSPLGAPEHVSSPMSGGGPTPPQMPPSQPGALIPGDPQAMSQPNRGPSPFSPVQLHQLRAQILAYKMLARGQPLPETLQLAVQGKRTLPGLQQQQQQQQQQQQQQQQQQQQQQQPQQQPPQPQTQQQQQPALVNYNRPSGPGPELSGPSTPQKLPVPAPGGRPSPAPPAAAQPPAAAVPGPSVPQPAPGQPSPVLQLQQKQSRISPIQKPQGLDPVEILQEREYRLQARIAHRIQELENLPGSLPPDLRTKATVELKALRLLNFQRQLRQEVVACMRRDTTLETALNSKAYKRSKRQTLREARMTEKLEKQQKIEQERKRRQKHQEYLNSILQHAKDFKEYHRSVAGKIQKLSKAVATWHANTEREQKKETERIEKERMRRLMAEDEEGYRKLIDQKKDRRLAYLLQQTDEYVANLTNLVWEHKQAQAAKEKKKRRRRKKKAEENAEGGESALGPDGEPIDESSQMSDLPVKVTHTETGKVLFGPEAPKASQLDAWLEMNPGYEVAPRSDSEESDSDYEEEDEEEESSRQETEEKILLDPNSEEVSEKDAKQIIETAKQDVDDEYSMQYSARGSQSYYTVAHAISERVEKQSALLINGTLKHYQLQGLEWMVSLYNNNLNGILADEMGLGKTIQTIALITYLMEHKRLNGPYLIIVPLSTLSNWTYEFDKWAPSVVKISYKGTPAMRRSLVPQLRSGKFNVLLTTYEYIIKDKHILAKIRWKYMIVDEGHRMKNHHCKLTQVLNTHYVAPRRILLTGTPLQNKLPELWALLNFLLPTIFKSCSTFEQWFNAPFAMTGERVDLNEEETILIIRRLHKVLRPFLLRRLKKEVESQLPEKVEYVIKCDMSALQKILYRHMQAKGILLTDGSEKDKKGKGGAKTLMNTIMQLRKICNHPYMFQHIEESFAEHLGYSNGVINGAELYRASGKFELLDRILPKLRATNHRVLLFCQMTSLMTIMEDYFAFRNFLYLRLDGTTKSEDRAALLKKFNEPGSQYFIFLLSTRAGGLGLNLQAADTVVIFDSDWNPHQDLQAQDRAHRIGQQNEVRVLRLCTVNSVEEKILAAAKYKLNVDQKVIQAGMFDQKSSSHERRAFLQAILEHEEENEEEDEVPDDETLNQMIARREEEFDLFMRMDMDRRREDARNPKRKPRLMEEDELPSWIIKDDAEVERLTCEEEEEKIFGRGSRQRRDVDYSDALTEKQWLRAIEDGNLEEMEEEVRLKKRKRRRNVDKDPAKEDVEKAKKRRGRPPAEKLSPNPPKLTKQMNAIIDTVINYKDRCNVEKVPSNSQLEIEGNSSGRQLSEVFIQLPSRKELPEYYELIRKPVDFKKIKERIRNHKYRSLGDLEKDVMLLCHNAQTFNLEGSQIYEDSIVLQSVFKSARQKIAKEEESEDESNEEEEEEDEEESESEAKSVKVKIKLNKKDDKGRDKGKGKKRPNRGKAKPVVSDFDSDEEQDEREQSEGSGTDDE

Sequence of BRG-1 (P51532 whole entry): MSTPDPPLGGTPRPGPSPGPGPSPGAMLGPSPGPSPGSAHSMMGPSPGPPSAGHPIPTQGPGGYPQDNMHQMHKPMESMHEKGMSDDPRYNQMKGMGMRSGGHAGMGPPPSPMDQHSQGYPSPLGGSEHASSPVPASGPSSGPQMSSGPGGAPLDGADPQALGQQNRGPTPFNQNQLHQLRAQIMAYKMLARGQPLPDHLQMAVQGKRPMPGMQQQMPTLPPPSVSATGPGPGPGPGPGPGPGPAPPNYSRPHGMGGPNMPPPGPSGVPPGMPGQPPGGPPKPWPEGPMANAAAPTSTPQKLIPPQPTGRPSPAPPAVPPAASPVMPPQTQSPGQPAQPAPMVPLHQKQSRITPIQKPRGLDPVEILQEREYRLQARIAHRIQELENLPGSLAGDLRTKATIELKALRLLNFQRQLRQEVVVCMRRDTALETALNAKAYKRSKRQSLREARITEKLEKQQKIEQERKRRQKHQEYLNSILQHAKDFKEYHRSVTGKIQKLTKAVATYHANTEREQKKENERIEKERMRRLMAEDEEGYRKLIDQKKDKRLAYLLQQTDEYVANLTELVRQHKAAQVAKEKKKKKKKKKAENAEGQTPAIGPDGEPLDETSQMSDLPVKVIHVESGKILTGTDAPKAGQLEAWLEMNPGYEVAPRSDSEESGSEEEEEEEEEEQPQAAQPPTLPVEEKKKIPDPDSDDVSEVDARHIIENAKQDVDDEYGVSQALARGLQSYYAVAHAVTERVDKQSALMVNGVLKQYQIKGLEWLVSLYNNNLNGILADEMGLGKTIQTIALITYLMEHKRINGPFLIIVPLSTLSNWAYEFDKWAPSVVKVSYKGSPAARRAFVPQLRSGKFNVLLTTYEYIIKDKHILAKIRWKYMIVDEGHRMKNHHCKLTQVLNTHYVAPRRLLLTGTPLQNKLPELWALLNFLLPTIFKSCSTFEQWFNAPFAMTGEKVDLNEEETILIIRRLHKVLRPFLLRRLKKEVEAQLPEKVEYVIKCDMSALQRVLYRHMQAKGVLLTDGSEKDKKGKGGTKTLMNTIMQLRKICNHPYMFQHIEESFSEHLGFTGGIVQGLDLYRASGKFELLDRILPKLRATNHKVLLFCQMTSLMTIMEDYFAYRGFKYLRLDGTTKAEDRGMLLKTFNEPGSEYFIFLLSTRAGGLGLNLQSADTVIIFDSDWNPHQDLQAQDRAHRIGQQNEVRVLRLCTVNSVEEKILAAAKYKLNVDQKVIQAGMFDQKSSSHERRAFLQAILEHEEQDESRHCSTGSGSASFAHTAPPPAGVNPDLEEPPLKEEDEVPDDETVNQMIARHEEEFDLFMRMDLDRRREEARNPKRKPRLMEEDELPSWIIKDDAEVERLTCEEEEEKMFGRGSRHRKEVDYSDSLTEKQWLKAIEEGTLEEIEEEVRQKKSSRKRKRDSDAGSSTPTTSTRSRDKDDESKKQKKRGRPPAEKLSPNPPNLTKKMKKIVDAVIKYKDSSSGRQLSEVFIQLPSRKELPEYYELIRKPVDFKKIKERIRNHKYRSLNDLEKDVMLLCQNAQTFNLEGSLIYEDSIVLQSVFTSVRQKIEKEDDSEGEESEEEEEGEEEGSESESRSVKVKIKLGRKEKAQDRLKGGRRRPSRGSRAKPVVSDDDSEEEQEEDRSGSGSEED

Row | IC50 (BRG-1) [nM] | Emax (BRG-1) [%] | BRM Max % Inhibition (BRM) [%] | IC50 (BRM) [µM] | SMILES
1 | 100 to 500 | 96 | 99 | < 0.1 | CCn1ccc2c(-c3ccc4cnc(CNC(=O)c5ccc6c(c5)[C@](C)(C#N)COC6)cc4n3)cccc21 [Compound 178]
2 | 100 to 500 | 96 | 99 | < 0.1 | Cn1ccc2c(-c3ccc4cnc(CNC(=O)c5ccc6c(c5)[C@](C)(C#N)COC6)cc4n3)cccc21 [Compound 179]
3 | 100 to 500 | 99 | 100 | < 0.1 | Cn1c(=O)ccc2ccc(-c3ccc4cnc(CNC(=O)c5ccc6c(c5)[C@](C)(C#N)COC6)cc4n3)nc21 [Compound 180]
4 | 100 to 500 | 97 | 100 | < 0.1 | C[C@@]1(C#N)COCc2ncc(C(=O)NCc3cc4cc(-c5cncc(C6CC6)n5)ccc4cn3)cc21 [Compound 181]
5 | 100 to 500 | 95 | 99 | < 0.1 | Cn1ncc2c(-c3ccc4cnc(CNC(=O)c5ccc6c(c5)[C@](C)(C#N)COC6)cc4n3)cccc21 [Compound 182]
6 | 100 to 500 | 82 | 98 | < 0.1 | C[C@@]1(F)COCc2ncc(C(=O)NCc3cc4nc(-c5ccnc(N6CCC6)n5)cnc4cn3)cc21 [Compound 183]
7 | 500 to 1000 | 67 | 94 | 0.1 to 0.5 | COc1c(-c2ccc3cnc(CNC(=O)c4ccc5c(c4)[C@](C)(C#N)COC5)cc3n2)cnn1C(F)F [Compound 184]
8 | 100 to 500 | 87 | 99 | < 0.1 | COc1nn([C@H]2C[C@H](F)C2)cc1-c1ccc2cnc(CNC(=O)c3ccc4c(c3)[C@](C)(C#N)COC4)cc2n1 [Compound 185]
9 | 500 to 1000 | 66 | 97 | < 0.1 | C[C@@]1(C#N)COCc2ccc(C(=O)NCc3cc4nc(-c5cn(C6COC6)nc5C5CC5)ccc4cn3)cc21 [Compound 186]
10 | > 1000 | 42 | 88 | 0.1 to 0.5 | Cc1c(-c2ccc3cnc(CNC(=O)c4ccc5c(c4)[C@](C)(C#N)COC5)cc3n2)cnn1C1COC1 [Compound 187]

More lines, now with the values behind:

Row | SMILES | IC50 (BRG-1) [nM] | Emax (BRG-1) [%] | BRM Max % Inhibition (BRM) [%] | IC50 (BRM) [µM]
11 | C[C@@]1(C#N)COCc2ccc(C(=O)NCc3ncc4ccc(-c5ccccc5)nc4c3F)cc21 [Compound 167] | 500 to 1000 | 69 | 93 | 0.1 to 0.5
12 | C[C@@]1(F)COCc2ccc(C(=O)NCc3cc4nc(-c5cccc(C6(CO)CC6)n5)ccc4cn3)cc21 [Compound 168] | 100 to 500 | 93 | 99 | < 0.1
13 | C[C@@]1(F)COCc2ccc(C(=O)NCc3cc4nc(-c5cccc(C6(O)CC(F)(F)C6)n5)ccc4cn3)cc21 [Compound 169] | 100 to 500 | 91 | 98 | < 0.1
14 | CC(C)(O)C#Cc1cccc(-c2ccc3cnc(CNC(=O)c4ccc5c(c4)[C@](C)(C#N)COC5)cc3n2)n1 [Compound 170] | 500 to 1000 | 80 | 96 | 0.1 to 0.5
15 | Cn1ccc2c(-c3ccc4cnc(CNC(=O)c5ccc6c(c5)[C@](C)(C#N)COC6)cc4n3)cc(F)cc21 [Compound 171] | 100 to 500 | 92 | 98 | < 0.1
16 | Cc1cc2c(-c3ccc4cnc(CNC(=O)c5ccc6c(c5)[C@](C)(C#N)COC6)cc4n3)cccc2n1C [Compound 172] | < 100 | 97 | 99 | < 0.1
17 | C[C@@]1(C#N)COCc2ccc(C(=O)NCc3cc4nc(-c5cccc6c5ccn6C5CC5)ccc4cn3)cc21 [Compound 173] | 100 to 500 | 94 | 98 | < 0.1
18 | CC(C)n1ccc2c(-c3ccc4cnc(CNC(=O)c5ccc6c(c5)[C@](C)(C#N)COC6)cc4n3)cccc21 [Compound 174] | 100 to 500 | 95 | 98 | < 0.1
19 | COc1cc(C2COC2)ccc1-c1ccc2cnc(CNC(=O)c3ccc4c(c3)[C@](C)(C#N)COC4)cc2n1 [Compound 175] | 100 to 500 | 86 | 97 | < 0.1
20 | [2H]C1([2H])OC([2H])([2H])[C@@](C)(F)c2cc(C(=O)NCc3cc4nc(-c5cncc(C6CC6)n5)ccc4cn3)cnc21 [Compound 176] | 500 to 1000 | 83 | 98 | < 0.1
21 | Cc1cn(C)c2cccc(-c3ccc4cnc(CNC(=O)c5ccc6c(c5)[C@](C)(C#N)COC6)cc4n3)c12 [Compound 177] | 500 to 1000 | 66 | 94 | 0.1 to 0.5
